# Assay results published in patent publication US7947854B2, “Bis-cationic compounds and use thereof” (The University of Sydney, priority 2003, dated 2011).
# Marks after values point to notes of the source that are not given here.
# Tests used:
# [1] = test system: membrane-associated phospholipase B (LPL/LPTA activities); assay: Radiometric assay, membrane-associated LPL/LPTA activities; type: biochemical, Cryptococcus neoformans H99; details: pH 4
# Procedure: (§1) Fungal isolates and media. […] Isolate H99 was kindly supplied by Dr. Gary Cox (Duke University Medical Center, Durham, N.C., USA), and subcultured onto Sabouraud dextrose agar (SDA) at 30° C.
# (§2) Cellular disruption to prepare membrane and cytosolic fractions. The cell pellet from the preparation of the supernatant, above, was also frozen at −70° C. After washing twice with imidazole buffer, it was disrupted in the presence of a protease inhibitor cocktail (P 8215 for fungal and yeast cells; 4-(2-aminoethyl)benzenesulfonyl fluoride hydrochloride, 100 mM, 1,10-phenanthroline, 500 mM, pepstatin A, 2.2 mM, E-64, 1.4 mM; Sigma) in a MiniBeadbeater-8 Cell Disrupter (MBB-8; Daintree Scientific, Tasmania, Australia) for three cycles of 1 min, alternating with a 1 min cooling period on ice. The homogenate was centrifuged at 14,000 g for 15 min to obtain the membrane (pellet) and the cytosolic (supernatant) fractions.
# (§3) Secreted LPL and LPTA activities were measured simultaneously in a reaction mixture containing 1-[^14C]palmitoyl lyso-PC (25,000 dpm) and carrier lyso-PC (final concentration 200 μM) in assay buffer. The reaction time was […] with 1 μg of total protein and LPL activity was measured by the rate of loss of 1-[^14C]palmitoyl lyso-PC with release of radiolabelled fatty acids. LPTA activity was estimated from the rate of formation of radiolabelled PC.
# (§4) All reactions were terminated by adding 0.5 mL of chloroform:methanol (2:1 v/v). The reaction products were extracted by the method as disclosed in Bligh, E. C. and W. J. Dyer. 1959 ‘A rapid method of total lipid extraction and purification.’ Can. J. Biochem. Physiol. 37:911-917, separated by TLC and quantified as previously described. In the case of PLC activity, the TLC plates were developed in petroleum ether (BP 60-80° C.): diethyl ether: acetic acid (90:15:1, v/v/v) instead of chloroform:methanol:water (65:25:4, v/v/v).
# (§5) All experiments were carried out in duplicate or triplicate. The effects of pH on the various phospholipase activities were measured using 50 mM final concentration of imidazole-acetate buffer (pH range 3-5), MES buffer (pH range 6-8) and glycine buffer (pH 9-10). Controls for non-enzymic breakdown of substrates were included at all pH values. Cations, Triton X-100 and metal chelators were made up as stock solutions in water and diluted to the final concentration in the appropriate assay buffer.
# (§6) Preparation of inhibitors and use in assays. The following compounds were tested (for structures, see FIG. 2): compound 1, 1,12-bis(tributylphosphonium)dodecane dibromide (Fluka AG, Buchs, Switzerland); compound 2, 1,10-bis(tributylammonium)-decane dibromide; compound 3, 1,12-bis(tributylammonium)do-decane dibromide (both synthesised in-house); compound 4, 1,10-bis(trimethylammonium)decane dibromide [“decamethonium”] (Sigma, St. Louis Mo., USA). All compounds were prepared as stock solutions of 700 μM in assay buffer containing 5 mM EDTA, which was then diluted serially with buffer to obtain solutions of 70, 7, 0.7 and 0.07 μM. In each assay, 45 μL of these solutions was used, and the final volume of 125 μL was made up of substrate, enzyme and buffer. The radiometric assay was carried out as above. Inhibition was calculated as the percent of substrates (DPPC or Lyso-PC) remaining in the case of PLB and LPL activities, or of DPPC produced, in the case of the LPTA activity. The amounts converted, or produced, in the inhibitor-free control were normalised to 100%, and the inhibition calculated against it. All assays were done in triplicate.
# (§7) Under these conditions only PLB, LPL and LPTA activities (both secreted and cell-associated) were measured. Initially, compounds deemed to be potential inhibitors were assayed at 25 and 250 μM.
# [2] = test system: cytosolic phospholipase B (LPL/LPTA activities); assay: Radiometric assay, cytosolic LPL/LPTA activities; type: biochemical, Cryptococcus neoformans H99; details: pH 4
# Procedure: as §1, §2, §3, §4, §5, §6, §7
# [3] = test system: two strains of C. neoformans and one strain of Candida albicans; assay: Standardised serial dilution sensitivity test, results stated over all strains; type: cell-based
# Procedure: Antifungal susceptibility testing. The antifingal activity of the compounds was measured by a standard microdilution method. […] The fungal strains tested included Cryptococcus neoformans H99, Cryptococcus neoformans ATCC 90112 and Candida albicans ATCC 10231. All tests were performed in duplicate.
SMILES,"% Inhibition LPL, Membrane-bound Enzyme ([1]; 2.5 μM)","% Inhibition LPTA, Membrane-bound Enzyme ([1]; 2.5 μM)","% Inhibition LPL, Membrane-bound Enzyme ([1]; 25 μM)","% Inhibition LPTA, Membrane-bound Enzyme ([1]; 25 μM)","% Inhibition LPL, Membrane-bound Enzyme ([1]; 250 μM)","% Inhibition LPTA, Membrane-bound Enzyme ([1]; 250 μM)","% Inhibition LPL, Cytosolic Enzyme ([2]; 2.5 μM)","% Inhibition LPTA, Cytosolic Enzyme ([2]; 2.5 μM)","% Inhibition LPL, Cytosolic Enzyme ([2]; 25 μM)","% Inhibition LPTA, Cytosolic Enzyme ([2]; 25 μM)","% Inhibition LPL, Cytosolic Enzyme ([2]; 250 μM)","% Inhibition LPTA, Cytosolic Enzyme ([2]; 250 μM)","antifungal / fungicidal activity, in words [3]"
"CCCC[P+](CCCC)(CCCC)CCCCCCCCCCCC[P+](CCCC)(CCCC)CCCC [Compound 1, 1,12-bis(tributylphosphonium)dodecane dibromide]",0%,0%,0%,0%,0%,0%,0%,0%,0%,0%,12.7* %,0%,
"CCCC[N+](CCCC)(CCCC)CCCCCCCCCCCC[N+](CCCC)(CCCC)CCCC [Compound 3, 1,12-bis(tributylammonium)do-decane dibromide]",,,,,,,,,,,,,fungicidal activity
